This passage reports remaining target (mRNA or protein) (fraction of control) results from the OligoGym collection.

These antisense oligonucleotides have a phosphorothioate backbone; sugars and methylation of C are not fully specified.
Further: test concentration or dose not given here.

The first data set addresses GNA11. As to conditions: ASO.
For the sequence AAGCCGCGCTTGTCCTCC, the remaining target (mRNA or protein) (fraction of control) is 0.44.
The sequence AAGTAGTCCACCAGGTGC returned a remaining target (mRNA or protein) (fraction of control) of at least 1.
In turn, ACCAGATTGTACTCCTTC came in with a remaining target (mRNA or protein) (fraction of control) of at least 1.
Still for that read-out and setting: the value for ACGGCCGCGAACACGAAG was 0.94.
As to ACGTGCTCTTCCCGCTCT, the remaining target (mRNA or protein) (fraction of control) was found to be 0.72.
Same read-out and setting: the result for ACTGACGTACTGATGCTC reads 0.64.

A further data set addresses TFRC. As to conditions: ASO.
GTGACACATTCAAGTGAG returned a remaining target (mRNA or protein) (fraction of control) of at least 1.
On the same count and under the same terms, the result for GTTATCGCCATCTACTTG reads at least 1; that for GTTGTTAGTCTGGAAGTA, 0.9; that for TACACCTTGGATAAACTG, 0.93.
The sequence TACCCAAATAAGGATAAT came in with a remaining target (mRNA or protein) (fraction of control) of at least 1.
Still for that read-out and setting: the value for TAGAGTCTGTTTTCCAGT was at least 1.
In turn, TATACCTTTACCTCCAAA had a remaining target (mRNA or protein) (fraction of control) of 0.99.
Same read-out and setting: the result for TATCTGAGAACATCTGGG reads at least 1; that for TATGATGGTTCACTCACG, at least 1.
The same measure, in the same setting: the result for TATTGTCAGCATTTTCTT reads at least 1; that for TCAACATACAACGCAAGA, 0.65; that for TCAACCTGGTATCTCCTA, 0.65.
Still for that read-out and setting: the result for TCAAGTTCTCCAGTAAAG reads at least 1.
TCATTTTATCCAGCAGAA yielded a remaining target (mRNA or protein) (fraction of control) of 0.79.
Still for that read-out and setting: the value for TCCAGGTGTGTAAGGGTC was at least 1; that for TGGGCAAGTTTCAATAGG was at least 1.
Consider TGGTGCTGGTGAAGTCTG, for which the remaining target (mRNA or protein) (fraction of control) is at least 1.
TTAACAACAACAGGAAAG showed a remaining target (mRNA or protein) (fraction of control) of at least 1.
On the same count and under the same terms, the result for TTAATAACTCCAAAGATG reads at least 1; that for TTACAACCTTCAGCAGAG, at least 1; that for TTACCCACCCAATGCTTA, 0.89.
On the same count and under the same terms, the value for TTCTCCACCAAACAAGTT was at least 1; that for TTCTTTCAGGAATGAGGA was 0.96; that for TTGGCTTCTGGTCCCCTC was 0.38.
Same read-out and setting: the result for TTGGTTTTGTGACATTGG reads 0.92; that for TTTAACATCAGGTTTTGT, at least 1; that for TTTAAGTCAAAAGGTCAA, at least 1.
As for TTTAGCATCAAATGAAGT, the remaining target (mRNA or protein) (fraction of control) was at least 1.
Same read-out and setting: the value for TTTGGCTGACGGCTGTTT was 0.39.

Another data set has as its target TNFRSF1A. As to conditions: ASO.
Turning to AAAGGCAAAGACCAAAGA, the remaining target (mRNA or protein) (fraction of control) came to 0.69.
Still for that read-out and setting: the result for AAAGGCTCAGGGACGAAC reads 0.58; that for ACAAAACAAAACAAAACA, 0.73; that for ACAGTTGAGGGTTGAGAC, 0.7.
Still for that read-out and setting: the result for ACGGTCCCATTGAGGCAG reads 0.66; that for ACGGTGTTCTGTTTCTCC, 0.93; that for ACTGTGGTGCCTGAGTCC, 0.69.
Same read-out and setting: the value for AGACTCGGGCATAGAGAT was at least 1.
As for AGCCGCTCTCACACTCCC, the remaining target (mRNA or protein) (fraction of control) was determined as 0.64.
Still for that read-out and setting: the value for AGCGGCAGCAGCAGGTCA was at least 1; that for AGCTGAGGCAGTGTCTGA was 0.73; that for AGCTGGAGGTGAAGGTGG was at least 1.
Still for that read-out and setting: the value for AGGAGGGATAAAAGGCAA was 0.78.
As to AGGCAGTGTCTGAGGTGG, the remaining target (mRNA or protein) (fraction of control) is at least 1.
As for AGGCCCCATTGTTCCGTG, the remaining target (mRNA or protein) (fraction of control) is at least 1.
Still for that read-out and setting: the value for AGGCTCTGTGGCTTGTGG was 0.53; that for AGGGCAGTGTGGCAGCGG was 0.47; that for AGGTGGTTTTCTGAAGCG was at least 1.
The same measure, in the same setting: the result for AGTAGGTTCCTTTGTGGC reads 0.54; that for ATAGCGTCCCTCATCCTC, 0.66; that for ATCCTCGCAAACCACCCA, 0.71.
Still for that read-out and setting: the result for ATCTGAGAAGACTGGGCG reads at least 1; that for ATTATTTTGAGGGTGGAT, at least 1; that for CAAAGACCAAAGAAAATG, 0.71.
Sequence CAATGAAGAGGAGGGATA gave a remaining target (mRNA or protein) (fraction of control) of 0.79.
The sequence CACCAGCGGCAGCAGCAG yielded a remaining target (mRNA or protein) (fraction of control) of 0.79.
Sequence CACCTGACCCATTTCCTT had a remaining target (mRNA or protein) (fraction of control) of 0.54.
The same measure, in the same setting: the result for CAGGAGCACCAGCGGCAG reads 0.54; that for CAGTCCGTATCCTGCCCC, 0.74.
On the same count and under the same terms, the value for CATTTCCTTTCGGCATTT was 0.87; that for CATTTGGGCTCAGGGCAG was 0.91.
Same read-out and setting: the value for CCATTGAGGCAGAGGCTG was 0.52.
CCGCCTCCAGGTCGCCAG came in with a remaining target (mRNA or protein) (fraction of control) of at least 1.
On the same count and under the same terms, the result for CCGTTGGTAGCGATACAT reads 0.7.
On the same count and under the same terms, the value for CGCAAACCACCCACTCAG was 0.49; that for CGCAAAGTTGGGACAGTC was 0.7.
Still for that read-out and setting: the result for CTACAGGAGACACACTCG reads 0.72; that for CTCAGGGACGAACCAGGG, 0.97.
CTCAGGGCAGTGTGGCAG had a remaining target (mRNA or protein) (fraction of control) of 0.39.
On the same count and under the same terms, the result for CTGTCCTCCCACTTCTGA reads 0.84.
On the same count and under the same terms, the result for CTTACAGTTACTACAGGA reads 0.79.
As for CTTAGTAGTAGTTCCTTC, the remaining target (mRNA or protein) (fraction of control) was 0.85.
GAAGCCTGGAGTGGGACT showed a remaining target (mRNA or protein) (fraction of control) of 0.52.
The same measure, in the same setting: the result for GACCCATTTCCTTTCGGC reads 0.74.
Still for that read-out and setting: the value for GCAGAGGGCACAGGAGTG was 0.76.
Consider GCAGCAGCAGGTCAGGCA, for which the remaining target (mRNA or protein) (fraction of control) was found to be 0.63.
On the same count and under the same terms, the value for GCAGCCCAGCAGGTCCAT was 0.68; that for GCAGGTCAGGCACGGTGG was 0.84.
The same measure, in the same setting: the value for GCAGTGTGGCAGCGGCAG was 0.47.
On the same count and under the same terms, the result for GCCAAGTTTCTATTAGTG reads 0.9.
The sequence GCCTGGACAGTCATTGTA displayed a remaining target (mRNA or protein) (fraction of control) of at least 1.
Still for that read-out and setting: the result for GCTCCTGCTTGCCCCTGC reads 0.57; that for GCTTGTCCAGGCAGAGGG, 0.82.
The same measure, in the same setting: the value for GCTTTTCTTACAGTTACT was 0.9; that for GGACTGAAGCCCAGGGTG was 0.88; that for GGTACTGGTTCTTCCTGC was 0.86.
With GGTGACAGTTGAGGGTTG, the remaining target (mRNA or protein) (fraction of control) stood at 0.92.
In the case of GGTTGAGACTCGGGCATA, the remaining target (mRNA or protein) (fraction of control) amounted to 0.6.
Same read-out and setting: the value for GGTTTTCTGAAGCGGTGA was 0.83.
GTCAGGCACGGTGGAGAG registered a remaining target (mRNA or protein) (fraction of control) of at least 1.
Sequence GTCCAGGCAGAGGGCACA returned a remaining target (mRNA or protein) (fraction of control) of 0.79.
Same read-out and setting: the value for GTCTGAGGTGGTTTTCTG was 0.66; that for GTGCCACCTCTCTGCGGG was at least 1.
Same read-out and setting: the value for GTGGAACTGGGCACGGGA was 0.96; that for GTTAGCACCAAGTAGGCG was 0.89.
The same measure, in the same setting: the result for GTTCCTTTGTGGCACTTG reads 0.88; that for TAACATTCTCAATCTGGG, at least 1; that for TATATTCCCACCAACAGC, 0.75.
As to TCCAGGCTTTTCTTACAG, the remaining target (mRNA or protein) (fraction of control) was at least 1.
The same measure, in the same setting: the value for TCCCCTCCTCTCTGCTTT was 0.95; that for TCCGTGCTCGCCCCTGCC was 0.81; that for TCCTCCAGGCAGCCCAGC was 0.59.
Same read-out and setting: the result for TCGATTTCCCACAAACAA reads 0.99; that for TCGTGGTCGCTCAGCCCT, 0.72.
The same measure, in the same setting: the result for TCTGAAGCGGTGAAGGAG reads at least 1.
On to TCTTCTCCCTGTCCCCTA, for which the remaining target (mRNA or protein) (fraction of control) came out at 0.87.
Regarding TGAAGGTGGAACTGGGCA, the remaining target (mRNA or protein) (fraction of control) came to 0.73.
The same measure, in the same setting: the value for TGAGGGTTGAGACTCGGG was 0.98; that for TGCCTTAGGACAGTTCAG was 0.8; that for TTAAACCAATGAAGAGGA was 0.72.
On the same count and under the same terms, the result for TTCTCTGGACTGAGGCTC reads 0.81.
Still for that read-out and setting: the value for TTGGGCTCAGGGCAGTGT was at least 1; that for TTGTTCCGTGCTCGCCCC was 0.59; that for TTTTCACTCCAATAATGC was at least 1.
